Measurements published in patent US12077503B2, “Substituted cyclic amides and their use as herbicides” (FMC CORPORATION, priority 2015, dated 2024).
Like-named read-outs stand apart in the source and are kept apart here.

Key:
Type in all cases: in vivo
[1] = tested on: rice (Oryra sativa); test: Test B flooded paddy test; settings: Oryza sativa, 250 g ai/ha, Flood; 0 to 100 scale where 0 is no effect and 100 is complete control; read-out: Rice plant response rating
In short: (§1)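 Rating scale 0–100 (visual, vs untreated controls) after a 13–15 d greenhouse period; application to the flood layer, 3 cm above soil and maintained; plants at 2-leaf stage when treated.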

[2] = tested on: ducksalad (Heteranthera limosa); test: Test B flooded paddy test; settings: Heteranthera limosa, 250 g ai/ha, Flood; 0 to 100 scale where 0 is no effect and 100 is complete control; read-out: Ducksalad plant response rating
In short: as §1

[3] = tested on: sedge, umbrella (small-flower umbrella sedge, Cyperus difformis); test: Test B flooded paddy test; settings: Cyperus difformis, Flood, 250 g ai/ha
In short: as §1

[4] = tested on: barnyardgrass (Echinochloa crus-galli); test: Test B flooded paddy test; settings: Echinochloa crus-galli, 250 g ai/ha, Flood; 0 to 100 scale where 0 is no effect and 100 is complete control; read-out: Barnyardgrass plant response rating
In short: as §1

[5] = tested on: pigweed (Amaranthus retroflexus); test: Test A postemergence; settings: Amaranthus retroflexus, post-emergence, 240 h; for pest or weed control at 125 g/ha: 125 g ai/ha, read-out: Pigweed plant response rating (0 to 100 scale); for pest or weed control at 500 g/ha: 500 g ai/ha, visual injury, 0 to 100 scale (0 no effect, 100 complete control), approx. 10 d, read-out: Plant response rating, Pigweed
In short: (§2)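 Treatment is preemergence as a directed soil spray after planting, or postemergence at the one- to two-leaf stage, with test chemical in a non-phytotoxic solvent mixture plus surfactant. Plants stay in the greenhouse about 10 d before visual injury scoring on a 0 to 100 scale versus untreated controls.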

[6] = tested on: ryegrass, Italian (Italian ryegrass, Lolium multiflorum); test: Test A postemergence; settings: Lolium multiflorum, post-emergence, 240 h; for pest or weed control at 125 g/ha: 125 g ai/ha, read-out: Ryegrass, Italian plant response rating (0 to 100 scale); for pest or weed control at 500 g/ha: 500 g ai/ha, visual injury, 0 to 100 scale (0 no effect, 100 complete control), approx. 10 d, read-out: Plant response rating, Ryegrass, Italian
In short: as §2

[7] = tested on: Kochia (Kochia scoparia); test: Test A postemergence; settings: Bassia scoparia, post-emergence, 240 h; for pest or weed control at 125 g/ha: 125 g ai/ha, read-out: Kochia plant response rating (0 to 100 scale); for pest or weed control at 500 g/ha: 500 g ai/ha, visual injury, 0 to 100 scale (0 no effect, 100 complete control), approx. 10 d, read-out: Plant response rating, Kochia
In short: as §2

[8] = tested on: wheat (Triticum aestivum); test: Test A postemergence; settings: Triticum aestivum, post-emergence, 240 h, Postemergence; for plant injury at 500 g/ha: 500 g ai/ha, visual injury, 0 to 100 scale (0 no effect, 100 complete control), approx. 10 d, read-out: Plant response rating, Wheat
In short: as §2

[9] = tested on: blackgrass (Alopecurus myosuroides); test: Test A postemergence; settings: Alopecurus myosuroides, post-emergence, 240 h; for pest or weed control at 125 g/ha: 125 g ai/ha, read-out: Blackgrass plant response rating (0 to 100 scale); for pest or weed control at 500 g/ha: 500 g ai/ha, visual injury, 0 to 100 scale (0 no effect, 100 complete control), approx. 10 d, read-out: Plant response rating, Blackgrass
In short: as §2

[10] = tested on: barnyardgrass (Echinochloa crus-galli); test: Test A postemergence; settings: Echinochloa crus-galli, post-emergence, 240 h; for pest or weed control at 125 g/ha: 125 g ai/ha; for pest or weed control at 500 g/ha: 500 g ai/ha, visual injury, 0 to 100 scale (0 no effect, 100 complete control), approx. 10 d, read-out: Plant response rating, Barnyardgrass
In short: as §2

[11] = tested on: corn (Zea mays); test: Test A postemergence; settings: Zea mays, post-emergence, 240 h; for plant injury at 125 g/ha: 125 g ai/ha, read-out: Corn plant response rating (0 to 100 scale); for Corn plant response rating (crop injury, 0 = no effect, 100 = complete kill) at 500 g/ha: 500 g ai/ha, visual injury, 0 to 100 scale (0 no effect, 100 complete control), approx. 10 d
In short: as §2

[12] = tested on: Galium (catchweed bedstraw, Galium aparine); test: Test A postemergence; settings: Galium, post-emergence, 240 h; for pest or weed control at 125 g/ha: 125 g ai/ha, read-out: Galium plant response rating (0 to 100 scale); for pest or weed control at 500 g/ha: 500 g ai/ha, visual injury, 0 to 100 scale (0 no effect, 100 complete control), approx. 10 d, read-out: Plant response rating, Galium
In short: as §2

[13] = tested on: giant foxtail (Setaria faberii); test: Test A postemergence; settings: Setaria faberi, post-emergence, 240 h; for pest or weed control at 125 g/ha: 125 g ai/ha, read-out: Foxtail, Giant plant response rating (0 to 100 scale); for pest or weed control at 500 g/ha: 500 g ai/ha, visual injury, 0 to 100 scale (0 no effect, 100 complete control), approx. 10 d, read-out: Plant response rating, Foxtail, Giant
In short: as §2

[14] = tested on: ragweed (common ragweed, Ambrosia elatior); test: Test A postemergence; settings: Ambrosia artemisiifolia, post-emergence, 240 h; for pest or weed control at 125 g/ha: 125 g ai/ha, read-out: Ragweed plant response rating (0 to 100 scale); for pest or weed control at 500 g/ha: 500 g ai/ha, visual injury, 0 to 100 scale (0 no effect, 100 complete control), approx. 10 d, read-out: Plant response rating, Ragweed
In short: as §2

[15] = Postemergence, visual rating about 10 d after treatment
[16] = postemergence, visual injury vs untreated controls after approx. 10 d, 0 = no effect, 100 = complete control

Compound	pest or weed control at 250 g/ha [1]	pest or weed control at 250 g/ha [2]	pest or weed control at 250 g/ha [4]	pest or weed control at 500 g/ha ([5]; Postemergence)	pest or weed control at 500 g/ha ([6]; Postemergence)	pest or weed control at 500 g/ha ([7]; Postemergence)	plant injury at 500 g/ha [8]	pest or weed control at 500 g/ha ([9]; Postemergence)	pest or weed control at 500 g/ha ([10]; Postemergence)	Corn plant response rating (crop injury, 0 = no effect, 100 = complete kill) at 500 g/ha ([11]; Postemergence)	pest or weed control at 500 g/ha ([12]; Postemergence)	pest or weed control at 500 g/ha ([13]; Postemergence)	pest or weed control at 500 g/ha ([14]; Postemergence)	other results
CN1C[C@H](c2ccc3c(c2)CCO3)[C@@H](C(=O)Nc2cccc(F)c2F)C1=O [Compound 1324]	0%	65%	75%	20%	50%	70%	70%	60%	90%	80%	50%	90%	40%	pest or weed control at 250 g/ha ([3]; 360 h, visually evaluated after 13 to 15 d, read-out: Plant response rating, Sedge, Umbrella (0 to 100 scale where 0 is no effect and 100 is complete control)): 0%; pest or weed control at 125 g/ha [5, 15]: 0%; pest or weed control at 125 g/ha [6, 15]: 30%; pest or weed control at 125 g/ha [7, 15]: 30%; plant injury at 125 g/ha ([8]; 125 g ai/ha, visual rating about 10 d after treatment, read-out: Wheat plant response rating (0 to 100 scale)): 30%; pest or weed control at 125 g/ha [9, 15]: 40%; pest or weed control at 125 g/ha ([10]; Postemergence, visual rating about 10 d after treatment, read-out: Barnyardgrass plant response rating (0 to 100 scale, 0 no effect, 100 complete control)): 90%; plant injury at 125 g/ha [11, 15]: 60%; pest or weed control at 125 g/ha [12, 15]: 30%; pest or weed control at 125 g/ha [13, 15]: 90%; pest or weed control at 125 g/ha [14, 15]: 20%
CN1C[C@H](c2ccc(F)c(C#N)c2)[C@@H](C(=O)Nc2cccc(F)c2F)C1=O [Compound 1255]	0%	100%	65%	30%	40%	50%	60%	60%	100%	90%	60%	80%	40%	pest or weed control at 250 g/ha ([3]; 0 to 100 scale where 0 is no effect and 100 is complete control, read-out: Sedge, Umbrella plant response rating): 0%; pest or weed control at 125 g/ha [5, 16]: 0%; pest or weed control at 125 g/ha [6, 16]: 20%; pest or weed control at 125 g/ha [7, 16]: 20%; pest or weed control at 125 g/ha [9, 16]: 0%; pest or weed control at 125 g/ha ([10]; postemergence, visual injury vs untreated controls after approx. 10 d, 0 = no effect, 100 = complete control, read-out: Barnyardgrass plant response rating (0 to 100 scale)): 90%; plant injury at 125 g/ha [11, 16]: 60%; pest or weed control at 125 g/ha [12, 16]: 40%; pest or weed control at 125 g/ha [13, 16]: 80%; pest or weed control at 125 g/ha [14, 16]: 0%
